Laboratory results as given in US9302999B2, “Substituted triazoles as herbicides” (E. I. DU PONT DE NEMOURS AND COMPANY, priority 2012, dated 2016).

Columns and labels:
Format in all cases: in vivo
rice (Oryza sativa) = experiment: Test B flooded paddy: rice; conditions: Flood; 250 g ai/ha; applied to paddy water at 2-leaf stage; visually evaluated after 13 to 15 days
In short: (§1)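 Flooded-pot test: compound dosed into 3 cm of standing water above soil when plants had two leaves. Visual control ratings (0–100) versus untreated plants after 13–15 d.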

[1] = system: chickweed (common chickweed, Stellaria media); experiment: Test D pre-/postemergence: chickweed; conditions: Postemergence
In short: (§2)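 Species were sown in silt loam and sprayed preemergence, or grown in peat/vermiculite medium and sprayed postemergence at the 1- to 4-leaf stage (2–18 cm), with compounds in a surfactant-containing solvent. Injury was visually rated against untreated controls after 14–21 days, on a 0 (no effect) to 100 (complete control) scale.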

[2] = system: ryegrass, Italian (Italian ryegrass, Lolium multiflorum); experiment: Test D pre-/postemergence: ryegrass, Italian
In short: as §2

[3] = system: Russian thistle (Salsola iberica); experiment: Test D pre-/postemergence: Russian thistle
In short: as §2

[4] = system: barnyardgrass (Echinochloa crus-galli); experiment: Test B flooded paddy: barnyardgrass; conditions: Flood; 250 g ai/ha; applied to paddy water at 2-leaf stage; visually evaluated after 13 to 15 days
In short: as §1

[5] = system: bluegrass (annual bluegrass, Poa annua); experiment: Test D pre-/postemergence: bluegrass
In short: as §2

[6] = system: blackgrass (Alopecurus myosuroides); experiment: Test D pre-/postemergence: blackgrass
In short: as §2

[7] = system: bermudagrass (Cynodon dactylon); experiment: Test C pre-/postemergence: bermudagrass
In short: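 Preemergence on seeds in loam/sand, postemergence on 2–18 cm (1–4-leaf) plants in peat-based medium; compounds in non-phytotoxic solvent with surfactant. After 13–15 days in greenhouse, visual rating versus controls, 0 (no effect) to 100 (complete control).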

[8] = system: deadnettle (henbit deadnettle, Lamium amplexicaule); experiment: Test D pre-/postemergence: deadnettle
In short: as §2

[9] = Postemergence, 31 g ai/ha, scale 0 to 100 (0 no effect, 100 complete control)
[10] = Postemergence, 62 g ai/ha, scale 0 to 100 (0 no effect, 100 complete control)
[11] = Postemergence, 125 g ai/ha, scale 0 to 100, 0 no effect, 100 complete control
[12] = Postemergence, 250 g ai/ha, scale 0 to 100 (0 no effect, 100 complete control)
[13] = Postemergence, 16 g ai/ha, scale 0 to 100
[14] = Preemergence, 16 g ai/ha, scale 0 to 100 (0 no effect, 100 complete control)
[15] = Preemergence, 31 g ai/ha, scale 0 to 100 (0 no effect, 100 complete control)
[16] = Preemergence, 62 g ai/ha, scale 0 to 100
[17] = Preemergence, 125 g ai/ha, scale 0 to 100
[18] = Preemergence, 250 g ai/ha, scale 0 to 100

CCOc1nn(-c2ccc(F)cc2)nc1Cc1ccnc(C(F)F)c1 [Compound 195]
40: Plant response rating: Chickweed ([1]; 31 g ai/ha, scale 0 to 100 (0 no effect, 100 complete control)) | Plant response rating: Russian Thistle [3, 9] | Plant response rating: Bluegrass [5, 10] | Plant response rating, Bermudagrass [7, 9]
98: Plant response rating, Bermudagrass ([7]; Preemergence, 31 g ai/ha, scale 0 (no effect) to 100 (complete control)) | Plant response rating, Bermudagrass ([7]; Preemergence, 62 g ai/ha, scale of 0 to 100, 0 is no effect, 100 is complete control) | Plant response rating, Bermudagrass ([7]; Preemergence, 125 g ai/ha, scale 0 to 100, 0 no effect, 100 complete control) | Plant response rating, Bermudagrass ([7]; Preemergence, 250 g ai/ha, scale 0 to 100, 0 no effect, 100 complete control)
0: Plant response rating, Ryegrass, Italian [2, 14] | Plant response rating, Ryegrass, Italian [2, 15] | Plant response rating, Ryegrass, Italian [2, 16] | Plant response rating, Russian Thistle [3, 14] | Plant response rating, Russian Thistle [3, 15] | Plant response rating, Russian Thistle [3, 16] | Plant response rating, Russian Thistle [3, 17] | Plant response rating, Bluegrass [5, 14] | Plant response rating, Blackgrass [6, 14]
65: Plant response rating: Deadnettle [8, 9]
50: Plant response rating, Bluegrass [5, 17] | Plant response rating: Blackgrass [6, 11]
30: Plant response rating, Chickweed ([1]; 16 g ai/ha, scale 0 to 100) | Plant response rating, Russian Thistle [3, 18]
25: Plant response rating: Ryegrass, Italian [2, 12] | Plant response rating: Blackgrass [6, 9]
70: Plant response rating: Blackgrass [6, 12] | Plant response rating, Blackgrass [6, 15]
95: Plant response rating, Bermudagrass ([7]; Postemergence, 250 g ai/ha, scale 0 to 100)
15: Plant response rating, Russian Thistle [3, 13]
60: Plant response rating, Rice (0 to 100 scale, 0 is no effect, 100 is complete control) (rice (Oryza sativa)) | Plant response rating: Chickweed ([1]; 62 g ai/ha, scale 0 to 100 (0 no effect, 100 complete control)) | Plant response rating, Ryegrass, Italian [2, 18] | Plant response rating: Bluegrass [5, 11] | Plant response rating, Bermudagrass [7, 10] | Plant response rating, Deadnettle [8, 13] | Plant response rating, Deadnettle [8, 14] | Plant response rating, Deadnettle [8, 15] | Plant response rating, Deadnettle [8, 16]
5: Plant response rating, Ryegrass, Italian [2, 13]
20: Plant response rating: Ryegrass, Italian [2, 10] | Plant response rating: Ryegrass, Italian [2, 11] | Plant response rating, Ryegrass, Italian [2, 17] | Plant response rating: Bluegrass [5, 9] | Plant response rating, Bluegrass [5, 16] | Plant response rating, Blackgrass [6, 13]
35: Plant response rating: Blackgrass [6, 10]
85: Plant response rating: Chickweed ([1]; 125 g ai/ha, scale 0 to 100, 0 no effect, 100 complete control) | Plant response rating: Russian Thistle [3, 11] | Plant response rating, Barnyardgrass (0 to 100 scale, 0 is no effect, 100 is complete control) [4]
90: Plant response rating: Chickweed ([1]; 250 g ai/ha, scale 0 to 100 (0 no effect, 100 complete control)) | Plant response rating, Bermudagrass [7, 11] | Plant response rating: Deadnettle [8, 12]
10: Plant response rating: Ryegrass, Italian [2, 9] | Plant response rating, Bluegrass [5, 13] | Plant response rating, Bluegrass [5, 15]
75: Plant response rating, Blackgrass [6, 16] | Plant response rating: Deadnettle [8, 10] | Plant response rating: Deadnettle [8, 11]
100: Plant response rating: Russian Thistle [3, 12] | Plant response rating, Blackgrass [6, 18] | Plant response rating, Deadnettle [8, 17] | Plant response rating, Deadnettle [8, 18]
80: Plant response rating: Russian Thistle [3, 10] | Plant response rating: Bluegrass [5, 12] | Plant response rating, Bluegrass [5, 18] | Plant response rating, Blackgrass [6, 17]
